Measured values published in PubChem BioAssay AID248 (DTP/NCI, 2004).
“And” between values parts separate entries of the source, which are not always exact repeats. Equal entries are not always repeated. Inconclusive results and toxic doses are left out. Cut-off read from the data, not from the text of the source: active = T/C of 150% or more; inactive = T/C below 125%.

Test system: L1210 leukemia ip in BDF1 mice, survival T/C
Assay: NCI In Vivo Anticancer Drug Screen. Data for tumor model L1210 Leukemia (intraperitoneal) in B6D2F1 (BDF1) mice
Conditions: endpoint: mean survival time, higher = longer survival
How it was run: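 Each compound was tested against a transplantable tumor grown in mice. The endpoint was survival, with treated animals benchmarked against vehicle controls as a simple ratio.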

[1] = dose: 100.0 mg/kg/injection, schedule: Q01DX009 (ip), vehicle: Klucel (hydroxypropylcellulose) (HPC)
[2] = dose: 100.0 mg/kg/injection, schedule: Q04DX003 (ip), vehicle: Klucel (hydroxypropylcellulose) (HPC)
[3] = dose: 200.0 mg/kg/injection, schedule: Q01DX009 (ip), vehicle: Klucel (hydroxypropylcellulose) (HPC)
[4] = dose: 200.0 mg/kg/injection, schedule: Q04DX003 (ip), vehicle: Klucel (hydroxypropylcellulose) (HPC)
[5] = dose: 400.0 mg/kg/injection, schedule: Q04DX003 (ip), vehicle: Klucel (hydroxypropylcellulose) (HPC)
[6] = dose: 100.0 mg/kg/injection, schedule: Q01DX009 (ip), vehicle: saline
[7] = dose: 100.0 mg/kg/injection, schedule: Q04DX003 (ip), vehicle: saline
[8] = dose: 200.0 mg/kg/injection, schedule: Q01DX009 (ip), vehicle: saline
[9] = dose: 200.0 mg/kg/injection, schedule: Q04DX003 (ip), vehicle: saline
[10] = dose: 400.0 mg/kg/injection, schedule: Q04DX003 (ip), vehicle: saline
[11] = dose: 50.0 mg/kg/injection, schedule: Q01DX009 (ip), vehicle: Klucel (hydroxypropylcellulose) (HPC)
[12] = dose: 100.0 mg/kg/injection, schedule: Q01DX009 (ip), vehicle: saline with Tween-80
[13] = dose: 100.0 mg/kg/injection, schedule: Q04DX003 (ip), vehicle: saline with Tween-80
[14] = dose: 200.0 mg/kg/injection, schedule: Q01DX009 (ip), vehicle: saline with Tween-80
[15] = dose: 200.0 mg/kg/injection, schedule: Q04DX003 (ip), vehicle: saline with Tween-80
[16] = dose: 400.0 mg/kg/injection, schedule: Q01DX009 (ip), vehicle: saline with Tween-80
[17] = dose: 400.0 mg/kg/injection, schedule: Q04DX003 (ip), vehicle: saline with Tween-80
[18] = dose: 100.0 mg/kg/injection, schedule: Q01DX001 (ip), vehicle: saline
[19] = dose: 200.0 mg/kg/injection, schedule: Q01DX001 (ip), vehicle: saline
[20] = dose: 400.0 mg/kg/injection, schedule: Q01DX001 (ip), vehicle: saline

Measured: T/C

O=C(Nc1ccc(F)cc1)C(c1ccccc1)c1ccccc1
inactive: [1] 108 % of control | [2] 90 % of control | [3] 101 % of control | [4] 93 % of control | dose: 400.0 mg/kg/injection, schedule: Q01DX009 (ip), vehicle: Klucel (hydroxypropylcellulose) (HPC) 95 % of control | [5] 88 % of control

ClCc1ccncc1
inactive: [6] 87 % of control | [7] 109 % of control | [8] 95 % of control | [9] 98 % of control | [10] 98 % of control

COC(=O)NC(=S)Nc1ccccc1NC(=S)NC(=O)OC
inactive: dose: 25.0 mg/kg/injection, schedule: Q01DX009 (ip), vehicle: Klucel (hydroxypropylcellulose) (HPC) 94 % of control | [11] 102 % of control | [1] 105 % of control | [2] 96 % of control | [4] 99 % of control | [5] 87 % of control

BrC1CCCCN1Cc1cc2ccccc2cc1CN1CCCCC1Br (configuration not stated)
inactive: dose: 9.38 mg/kg/injection, schedule: Q01DX001 (ip), vehicle: other 100 % of control | dose: 18.75 mg/kg/injection, schedule: Q01DX001 (ip), vehicle: other 102 % of control

NC(=O)Nc1nc(-c2ccccc2)cc(-c2ccccc2O)n1
inactive: dose: 100.0 mg/kg/injection, schedule: Q04DX002 (ip), vehicle: Klucel (hydroxypropylcellulose) (HPC) 91 % of control | dose: 200.0 mg/kg/injection, schedule: Q04DX002 (ip), vehicle: Klucel (hydroxypropylcellulose) (HPC) 91 % of control | dose: 400.0 mg/kg/injection, schedule: Q04DX002 (ip), vehicle: Klucel (hydroxypropylcellulose) (HPC) 102 % of control

COc1ccc(C(=O)OC(=O)c2ccc(OC)cc2)cc1
inactive: dose: 50.0 mg/kg/injection, schedule: Q01DX001 (ip), vehicle: carboxymethylcellulose (CMC) 110 % of control | dose: 100.0 mg/kg/injection, schedule: Q01DX001 (ip), vehicle: carboxymethylcellulose (CMC) 104 % of control | [12] 113 % of control | [13] 102 % of control | dose: 200.0 mg/kg/injection, schedule: Q01DX001 (ip), vehicle: carboxymethylcellulose (CMC) 108 % of control | [14] 116 % of control | [15] 102 % of control | dose: 400.0 mg/kg/injection, schedule: Q01DX001 (ip), vehicle: carboxymethylcellulose (CMC) 112 % of control | [16] 110 % of control | [17] 101 % of control

C[CH2][Sn]([I])([CH2]C)[CH2]C
inactive: dose: 1.56 mg/kg/injection, schedule: Q01DX009 (ip), vehicle: saline 92 % of control | dose: 3.13 mg/kg/injection, schedule: Q01DX009 (ip), vehicle: saline 94 % of control | dose: 6.25 mg/kg/injection, schedule: Q01DX009 (ip), vehicle: saline 89 % of control | dose: 25.0 mg/kg/injection, schedule: Q04DX002 (ip), vehicle: gum acacia 87 % of control

CC(/C=C\c1ccc([N+](=O)[O-])cc1)=N\NC(=O)c1ccncc1
inactive: [13] 98 % of control | [15] 98 % of control | [17] 96 % of control

OCC(O)C(O)C(O)C(O)C(O)c1nc2ccccc2[nH]1 (configuration not stated)
inactive: [12] 101 % of control | [13] 97 % of control | [14] 98 % of control | [15] 93 % of control | [16] 96 % of control | [17] 103 % of control

CCOC(=O)/C=C\SCC(=O)OCC
inactive: dose: 100.0 mg/kg/injection, schedule: Q04DX002 (ip), vehicle: saline 104 % of control | dose: 200.0 mg/kg/injection, schedule: Q04DX002 (ip), vehicle: saline 104 % of control | dose: 400.0 mg/kg/injection, schedule: Q04DX002 (ip), vehicle: saline 93 % of control

CCN(CC)CC(OC)C(COC)OC(=O)C(c1ccccc1)c1ccccc1 (configuration not stated)
inactive: dose: 13.0 mg/kg/injection, schedule: Q01DX Z (ip), vehicle: saline 105 % of control | dose: 20.0 mg/kg/injection, schedule: Q01DX Z (ip), vehicle: saline 98 % of control | dose: 30.0 mg/kg/injection, schedule: Q01DX Z (ip), vehicle: saline 102 % of control

CCN(CC)C(=O)c1ccc([N+](=O)[O-])cc1
inactive: [11] 97 % of control | [1] 97 % of control | [2] 92 % of control | [3] 95 % of control | [4] 100 % of control

Cc1c2c([nH]c(=O)c1C)C=CC(Br)C2Br (configuration not stated)
inactive: dose: 100.0 mg/kg/injection, schedule: Q01DX001 (ip), vehicle: other 93 % of control | dose: 200.0 mg/kg/injection, schedule: Q01DX001 (ip), vehicle: other 101 % of control | dose: 400.0 mg/kg/injection, schedule: Q01DX001 (ip), vehicle: other 98 % of control

CSc1ncc(CO)c(NCc2ccco2)n1
inactive: dose: 100.0 mg/kg/injection, schedule: Q01DX001 (ip), vehicle: Klucel (hydroxypropylcellulose) (HPC) 98 % of control | dose: 200.0 mg/kg/injection, schedule: Q01DX001 (ip), vehicle: Klucel (hydroxypropylcellulose) (HPC) 98 % of control | dose: 400.0 mg/kg/injection, schedule: Q01DX001 (ip), vehicle: Klucel (hydroxypropylcellulose) (HPC) 98 % of control

CCOC(=O)C(C)C1(O)CCCCC1 (configuration not stated)
inactive: [6] 98 % of control | [8] 95 % of control | dose: 400.0 mg/kg/injection, schedule: Q01DX009 (ip), vehicle: saline 98 % of control

COc1ccccc1/C=N/N=C(N)N
inactive: dose: 15.5 mg/kg/injection, schedule: Q01DX Z (ip), vehicle: other 97 % of control | dose: 31.0 mg/kg/injection, schedule: Q01DX Z (ip), vehicle: other 96 % of control

Cc1cc(C)c(N2C(=O)C=CC2=O)c(C)c1
inactive: dose: 0.39 mg/kg/injection, schedule: Q01DX009 (ip), vehicle: saline with Tween-80 94 % of control | dose: 0.78 mg/kg/injection, schedule: Q01DX009 (ip), vehicle: saline with Tween-80 94 % of control | dose: 1.56 mg/kg/injection, schedule: Q01DX009 (ip), vehicle: saline with Tween-80 95 % of control and 108 % of control | dose: 6.25 mg/kg/injection, schedule: Q01DX009 (ip), vehicle: saline with Tween-80 88 % of control

COc1ccccc1/C=C/c1ccnc2ccccc12
inactive: [18] 101 % of control | [7] 97 % of control | [19] 102 % of control | [9] 100 % of control | [20] 98 % of control | [10] 93 % of control

O=C(C=C(C(F)(F)F)C(F)(F)F)c1ccccc1
inactive: [18] 100 % of control | [6] 91 % of control | [19] 94 % of control | [8] 100 % of control | [20] 109 % of control
